This passage reports side effects and TRPV1 conductance results from patent US20220130493A1, “METHOD AND SYSTEMS FOR PHYTOMEDICINE ANALYTICS FOR RESEARCH OPTIMIZATION AT SCALE” (GBS Global BioPharma, Inc., priority 2020, published 2022).

For series [1] the following is noted: in vivo; cited from earlier work.
Another series relates to TRPV1. Kind of series: Whole cell patch clamp electrophysiology of TRPV1 conductance. Type of series: cell-based. The text has this:
FIG. 25C provides data on the functional effects of terpenes at the nociceptive ion channel TRPV1.
In general terms: The patch-clamp technique gives a direct electrical read-out from membranes.

In the case of `CN1C[C@H](C(=O)N[C@]2(C)O[C@@]3(O)[C@@H]4CCCN4C(=O)[C@H](Cc4ccccc4)N3C2=O)C=C2c3cccc4[nH]cc(c34)C[C@H]21` [ergotamine], the side effects result in series [1] is “nausea, vomiting and cardiovascular side effects”.

As to `C=CC(=C)CCC=C(C)C` [myrcene], the TRPV1 conductance result in the series with TRPV1 was “activate TRPV1 conductance”.
